Results as given in patent US20250243186A1, “PIPERIDINYL INDOLE DERIVATIVES, PREPARATION METHODS AND MEDICINAL USES THEREOF” (HANSOH BIO LLC, priority 2021, published 2025).
Where two headings read alike, the source gives them in different places.

Experiments:
[1] = target: T1, Recombinant human Factor B catalytic domain (Homo sapiens (Human), UniProt P00751); experiment: biochemical
[2] = target: T1, Recombinant human Factor B catalytic domain; experiment: Target residence time of Factor B inhibitors by surface plasmon resonance (SPR); details: for Residence time: 1/koff; for t1/2: binding half-life ln2/koff
[3] = target: T1, Recombinant human Factor B catalytic domain; experiment: Factor B binding assay by TR-FRET; details: 10 nM his-tagged Factor B catalytic domain, 100 nM tracer, 1 h
[4] = system: alternative complement pathway (AP); experiment: Ex vivo assessment of plasma PD inhibition (AP MAC deposition ELISA in rat serum); parameters: species or system Sprague Dawley rats; details: 2 mg/kg oral
[5] = Ocular pharmacokinetic studies in rats; format: in vivo, brown Norway rats; details: 2 mpk PO
Procedure: Three-month-old brown Norway rats were administered the Example compound via oral gavage as a suspension in 2 equiv 1 N HCl+30% PEG300+50% (20% Cremophor EL in water). Ocular tissues from both eyes and plasma were collected from rats per time point at 0.25, 0.5, 1, 6, and 24 h after administration. The ocular tissues collected were the retina and the posterior eye cup (RPE/choroid and posterior sclera). The tissues were diluted with phosphate buffered saline containing 10% acetonitrile and homogenized, centrifuged prior to analyses. The concentrations of the test article were measured in plasma and supernatants of ocular homogenates by HPLC-MS/MS in four individual retinas, four individual posterior eye cups, and two individual plasma samples at each time point. Chromatographic separation was carried out on Waters BEH C18 Column (2.1×50 mm, 1.7 μm) column (MAC-MOD Analytical, Chadds Ford, PA), using a gradient elution method with water and acetonitrile, both containing 0.025% formic acid—1 mM NH4OAc. Mass spectrometric measurements in positive electrospray ionization were directed at quantifying the mass transition with [M+H]^+ as the precursor ion on API6500, triple quadruple mass spectrometer (Sciex, Framingham, MA). The relevant pharmacokinetic parameters were estimated using noncompartmental methods using WinNonlin (Enterprise, version 8.2).

AP complement activation = experiment: In vivo assessment of mouse AP complement functional activity (LPS-induced plasma C3b/iC3b/C3c ELISA); parameters: species or system C57BL/6 mice; details: at 20 h, 20 mg/kg oral
Procedure: Female C57BL/6 mice were administered with Example 57 formulation (20 mg/kg in 0.5% (w/v) methyl cellulose, 0.5% (v/v) Tween 80) by oral gavage 20 h before the end of study. To activate complement pathway, lipopolysaccharide (LPS) from Salmonella typhimurium (Sigma) was injected i.p. (2.5 mg/kg) 7.5 h prior to the end of the study. Control mice were given i.p. injection of saline solution and dosed with vehicle by oral gavage. Plasma samples were collected from mice at the end of the study. AP complement activation was assessed by measuring plasma C3 cleavage products C3b/iC3b/C3c with ELISA using rat anti-mouse C3b/iC3b/C3c monoclonal antibody (clone 2/11, Hycult biotech, 0.1ug/well) and goat anti-Rat IgG (whole molecule)-Peroxidase (Sigma) diluted in TBST (TBS/0.05% Tween20).

[6] = read-out: Factor B TR-FRET IC50

T1 sequence (P00751 470-764): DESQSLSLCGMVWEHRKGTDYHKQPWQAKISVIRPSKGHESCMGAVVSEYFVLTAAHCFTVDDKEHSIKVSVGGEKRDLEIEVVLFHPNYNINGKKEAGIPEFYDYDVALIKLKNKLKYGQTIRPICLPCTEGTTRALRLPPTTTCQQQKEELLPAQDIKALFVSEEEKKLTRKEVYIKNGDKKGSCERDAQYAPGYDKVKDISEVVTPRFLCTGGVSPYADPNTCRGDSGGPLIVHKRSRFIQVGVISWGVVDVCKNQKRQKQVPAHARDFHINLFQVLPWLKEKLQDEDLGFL

COc1cc(C)c2[nH]ccc2c1CN1CCC2(C[C@H]1c1ccc(-c3noc(=O)[nH]3)cc1)CC(F)(F)C2 (single isomer, unassigned) [47 (Isomer 1)]
Kd [1]: 0.53 nM
Residence time [2]: 4130 s
t1/2 [2]: 0.795 h
IC50 ([3]; Factor B TR-FRET IC50 (nM)): < 2 nM

CCO[C@H]1CCN(Cc2c(OC)cc(C)c3[nH]ccc23)[C@H](c2ccc(C(=O)O)cc2)C1 [Iptacopan, reference compound]
inhibition at 2 mg/kg ([4]; Rattus norvegicus, rats, 24 h post dose, 50% serum, read-out: Serum PD inhibition (%) at 24 h (2 mpk)): -3%

COc1cc(C)c2[nH]ccc2c1CN1CCC2(CC1c1ccc(C(=O)O)cc1)CC2(F)F (single isomer, unassigned) [8 (Isomer 1), 4-(1,1-difluoro-6-((5-methoxy-7-methyl-1H-indol-4-yl)methyl)-6-azaspiro[2.5]octan-5-yl)benzoic acid]
IC50 ([3]; Factor B TR-FRET IC50 (nM)): 7 nM
AUC(0-t) ([5]; Brown Norway, rat, 2 mg/kg, plasma, read-out: Plasma AUC0-last): 10.8 µM·h
AUC(0-t) ([5]; Brown Norway, rat, 2 mg/kg, retina, read-out: Retina AUC0-last): 2.23 µM·h
half-life ([5]; Brown Norway, rat, in vivo, 2 mg/kg, read-out: T½ (converted)): 6.4 h

COc1cc(C)c2[nH]ccc2c1CN1CCC2(CC1c1ccc(C(=O)O)cc1)CC2F (single isomer, unassigned) [27 (Isomer 2), 4-(1-fluoro-6-((5-methoxy-7-methyl-1H-indol-4-yl)methyl)-6-azaspiro[2.5]octan-5-yl)benzoic acid]
Kd [1]: 4.25 nM
Residence time [2]: 308.9 s
t1/2 [2]: 0.0592 h
IC50 ([3]; Factor B TR-FRET IC50 (nM)): 5.3 nM

Cc1cc(C2CC2)c(CN2CCC3(C[C@H]2c2ccc(C(=O)O)cc2)CC(F)(F)C3)c2cc[nH]c12 [Example 53]
t1/2 [2]: 1.214 h
IC50 [3, 6]: < 2 nM

COc1cc(C)c2[nH]ccc2c1CN1CCC2(C[C@H]1c1ccc(C(=O)O)cc1C)CC(F)(F)C2 [Example 57]
inhibition in rat ex-vivo PD assay ([4]; at 24 h): sustained inhibition
t1/2 [2]: 1.188 h
IC50 [3, 6]: < 2 nM
T½ [5]: 22.2 h
Plasma AUC0-last (nM · h) ([5]; plasma): 12,668 nM · h
Retina AUC0-last ([5]; retina): 0.7964 µM·h
inhibition in mouse in-vivo PD assay (AP complement activation): sustained inhibition

COc1cc(C)c2[nH]ccc2c1CN1CC2CC(C(F)F)CC2C1c1ccc(C(=O)O)cc1 (single isomer, unassigned) [39 (Isomer 2), 4-(5-(difluoromethyl)-2-((5-methoxy-7-methyl-1H-indol-4-yl)methyl)octahydrocyclopenta[c]pyrrol-1-yl)benzoic acid]
IC50 ([3]; Factor B TR-FRET IC50 (nM)): 4.1 nM

COc1cc(C)c2[nH]ccc2c1CN1CC2CC3(CC3)CC2C1c1ccc(C(=O)O)cc1 (single isomer, unassigned) [29 (Isomer 1), 4-(2-((5-methoxy-7-methyl-1H-indol-4-yl)methyl)hexahydro-1H-spiro[cyclopenta[c]pyrrole-5,1′-cyclopropan]-1-yl)benzoic acid]
Kd [1]: 7.03 nM
Residence time [2]: 236.4 s
t1/2 [2]: 0.0453 h
IC50 ([3]; Factor B TR-FRET IC50 (nM)): 7.5 nM

Cc1cc(C)c2[nH]ccc2c1CN1CCC2(CCCO2)CC1c1ccc(C(=O)O)cc1 (single isomer, unassigned) [2 (Isomer 6), 4-(8-((5,7-dimethyl-1H-indol-4-yl)methyl)-1-oxa-8-azaspiro[4.5]decan-7-yl)benzoic acid]
IC50 ([3]; Factor B TR-FRET IC50 (nM)): 60 nM

COc1cc(C)c2[nH]ccc2c1C(C)N1CC2CCCC2C1c1ccc(C(=O)O)cc1 (single isomer, unassigned) [37 (Isomer 4), 4-(2-(1-(5-methoxy-7-methyl-1H-indol-4-yl)ethyl)octahydrocyclopenta[c]pyrrol-1-yl)benzoic acid]
IC50 ([3]; Factor B TR-FRET IC50 (nM)): 359 nM

COc1cc(C)c2[nH]ccc2c1CN1CC2CN(CC(F)F)CC2C1c1ccc(C(=O)O)cc1 (centres unmarked) [Example 23, 4-(5-(2,2-difluoroethyl)-2-((5-methoxy-7-methyl-1H-indol-4-yl)methyl)octahydropyrrolo[3,4-c]pyrrol-1-yl)benzoic acid]
IC50 [3, 6]: 143 nM

Cc1cc(C2CC2)c(CN2CC3CCCC3C2c2ccc(C(=O)O)cc2)c2cc[nH]c12 (single isomer, unassigned) [32 (Isomer 1), 4-(2-((5-cyclopropyl-7-methyl-1H-indol-4-yl)methyl)octahydrocyclopenta[c]pyrrol-1-yl)benzoic acid]
IC50 ([3]; Factor B TR-FRET IC50 (nM)): 26.3 nM

COc1cc(C)c2[nH]ccc2c1CN1CCC2(CCOC2)CC1c1ccc(C(=O)O)cc1 (single isomer, unassigned) [36 (Isomer 2), 4-(8-((5-methoxy-7-methyl-1H-indol-4-yl)methyl)-2-oxa-8-azaspiro[4.5]decan-7-yl)benzoic acid]
IC50 ([3]; Factor B TR-FRET IC50 (nM)): 16.6 nM

COc1cc(C)c2[nH]ccc2c1CN1CCC2(CC1c1ccc(C(=O)O)cc1)CC2F (single isomer, unassigned) [27 (Isomer 1), 4-(1-fluoro-6-((5-methoxy-7-methyl-1H-indol-4-yl)methyl)-6-azaspiro[2.5]octan-5-yl)benzoic acid]
Kd [1]: 6.25 nM
Residence time [2]: 191.4 s
t1/2 [2]: 0.0367 h
IC50 ([3]; Factor B TR-FRET IC50 (nM)): 5 nM

Cc1cc(C(=O)O)ccc1[C@@H]1CC2(CCN1Cc1c(C3CC3)cc(C)c3[nH]ccc13)CC(F)(F)C2 [Example 83]
IC50 [3, 6]: < 2 nM

Cc1cc(C)c2[nH]ccc2c1CN1CCC(CCCO)=CC1c1ccc(C(=O)O)cc1 (single isomer, unassigned) [2 (Isomer 2), 4-(1-((5,7-dimethyl-1H-indol-4-yl)methyl)-4-(3-hydroxypropyl)-1,2,5,6-tetrahydropyridin-2-yl)benzoic acid]
IC50 ([3]; Factor B TR-FRET IC50 (nM)): 360 nM
